Tested on: OPN production by human non-small cell lung cancer-derived cell line A549
Experiment: OPN production by A549 cells (Human Osteopontin Immunoassay, per mg protein)
Assay type: cell-based
Settings: 2-day culture
Protocol: The confirmation test was performed in the following manner. The compound 3 wad added to a culture liquid containing cells of a human non-small cell lung cancer-derived cell line A549 or a human liver cancer-derived cell line HepG2, and the amount of OPN in culture supernatant after 2-day culture was measured using Human Osteopontin Immunoassay kit (R&D systems) and compared with the OPN amount of a compound 3-free group (control group).
The compound 3 has also cell growth inhibitory effect. Therefore, in order to properly evaluate the OPN production-suppressing effect of the compound 3, 1×CCLR used in luciferase assay was added to cells remaining in each well after removal of culture supernatant to prepare a cell lysate, and the amount of protein in the cell lysate was measured using BCA Protein Assay Kit (Thermo Scientific). The influence of addition of the compound 3 on the amount of OPN production was evaluated by comparison of the amount of OPN per milligram of protein.
First, A549 cells or HepG2 cells were suspended in DMEM medium containing 10% FCS and 1% P/S at 4×10^4 cells/mL to obtain a cell suspension, and 500 μL of the cell suspension was dispensed into each well of a 24-well plate. In order to perform the test in triplicate, 3 wells were prepared for a control group and 3 wells were prepared for each test compound-treated group at each concentration. […]

## CCCCCCCCCCCC(=O)[C@H]1C(=O)O[C@@H](C)C[C@@H]1C [Chemical formula 3]
30 μmol/L, significance level less than 5%
  suppression of OPN production vs control group: significantly suppressed
60 μmol/L, significance level less than 1%
  suppression of OPN production vs control group: significantly suppressed
